The record followed here is US8685970B2, “Quinolines and related analogs as sirtuin modulators” (GlaxoSmithKline, LLC, priority 2008, dated 2014).

Molecules are shown by their SMILES.

This assay deals with T1, SIRT1 (Homo sapiens, UniProt Q96EB6).
T1 sequence (Q96EB6 1-747): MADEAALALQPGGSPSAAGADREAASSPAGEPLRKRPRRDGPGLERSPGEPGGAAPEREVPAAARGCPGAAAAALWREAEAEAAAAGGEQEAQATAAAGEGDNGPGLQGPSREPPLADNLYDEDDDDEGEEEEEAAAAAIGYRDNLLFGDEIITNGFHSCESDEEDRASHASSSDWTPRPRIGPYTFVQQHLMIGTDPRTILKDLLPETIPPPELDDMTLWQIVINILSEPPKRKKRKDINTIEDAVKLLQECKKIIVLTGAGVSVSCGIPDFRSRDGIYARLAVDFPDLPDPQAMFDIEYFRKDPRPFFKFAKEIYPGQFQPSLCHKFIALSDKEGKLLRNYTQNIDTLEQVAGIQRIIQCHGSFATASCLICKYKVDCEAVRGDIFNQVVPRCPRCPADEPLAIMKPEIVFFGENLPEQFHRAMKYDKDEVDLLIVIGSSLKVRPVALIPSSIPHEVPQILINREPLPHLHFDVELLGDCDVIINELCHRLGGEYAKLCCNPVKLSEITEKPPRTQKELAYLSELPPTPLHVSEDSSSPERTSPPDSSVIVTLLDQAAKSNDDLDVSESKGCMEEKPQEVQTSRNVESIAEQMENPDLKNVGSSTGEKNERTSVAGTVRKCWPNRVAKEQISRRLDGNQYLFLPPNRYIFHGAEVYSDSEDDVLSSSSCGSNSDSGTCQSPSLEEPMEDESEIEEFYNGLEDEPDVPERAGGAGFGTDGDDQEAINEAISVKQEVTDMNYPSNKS
Briefly: Mass spectrometry based SIRT1 deacetylation assay (activation). The assay is classed as biochemical. The settings on record: 10 nM SIRT1, 0.5 μM peptide substrate, 120 μM βNAD+, 25 min at 25° C. An excerpt:
A mass spectrometry based assay was used to identify modulators of SIRT1 activity. The mass spectrometry based assay utilizes a peptide having 20 amino acid residues as follows: Ac-EE-K (biotin)-GQSTSSHSK (Ac)N1eSTEG-K(5TMR)-EE-NH2 (SEQ ID NO: 1) wherein K(Ac) is an acetylated lysine residue and Nle is a norleucine. The peptide is labeled with the fluorophore 5TMR (excitation 540 nm/emission 580 nm) at the C-terminus. The sequence of the peptide substrate is based on p53 with several modifications. In addition, the methionine residue naturally present in the sequence was replaced with the norleucine because the methionine may be susceptible to oxidation during synthesis and purification.
The mass spectrometry assay is conducted as follows: 0.5 μM peptide substrate and 120 μM βNAD^+ is incubated with 10 nM SIRT1 for 25 minutes at 25° C. in a reaction buffer (50 mM Tris-acetate pH 8, 137 mM NaCl, 2.7 mM KCl, 1 mM MgCl2, 5 mM DTT, 0.05% BSA). Test compounds may be added to the reaction as described above. The SirT1 gene is cloned into a T7-promoter containing vector and transformed into BL21(DE3). After the 25 minute incubation with SIRT1, 10 μL of 10% formic acid is added to stop the reaction. Reactions are sealed and frozen for later mass spec analysis. Determination of the mass of the substrate peptide allows for precise determination of the degree of acetylation (i.e. starting material) as compared to deacetylated peptide (product).
A control for inhibition of sirtuin activity is conducted by adding 1 μL of 500 mM nicotinamide as a negative control at the start of the reaction (e.g., permits determination of maximum sirtuin inhibition). A control for activation of sirtuin activity is conducted using 10 nM of sirtuin protein, with 1 μL of DMSO in place of compound, to determine the amount of deacetylation of the substrate at a given timepoint within the linear range of the assay. This timepoint is the same as that used for test compounds and, within the linear range, the endpoint represents a change in velocity.
For the above assay, SIRT1 protein was expressed and purified as follows. The SirT1 gene was cloned into a T7-promoter containing vector and transformed into BL21(DE3). The protein was expressed by induction with 1 mM IPTG as an N-terminal His-tag fusion protein at 18° C. overnight and harvested at 30,000×g. Cells were lysed with lysozyme in lysis buffer (50 mM Tris-HCl, 2 mM Tris[2-carboxyethyl]phosphine (TCEP), 10 μM ZnCl2, 200 mM NaCl) and further treated with sonication for 10 min for complete lysis. The protein was purified over a Ni-NTA column (Amersham) and fractions containing pure protein were pooled, concentrated and run over a sizing column (Sephadex S200 26/60 global). The peak containing soluble protein was collected and run on an Ion-exchange column (MonoQ). Gradient elution (200 mM-500 mM NaCl) yielded pure protein. This protein was concentrated and dialyzed against dialysis buffer (20 mM Tris-HCl, 2 mM TCEP) overnight. The protein was aliquoted and frozen at −80° C. until further use.
Sirtuin modulating compounds that activated SIRT1 were identified using the assay described above and are shown below in Table 1. The EC1.5 values represent the concentration of test compounds that result in 150% activation of SIRT1. The EC1.5 values for the activating compounds are represented by A (EC1.5<1.0 uM), B (EC1.5 1-25 uM), C (EC1.5>25 uM). The percent maximum fold activation is represented by A (Fold activation >200%) or B (Fold Activation <200%). “NT” indicates the compound was not tested in a particular assay.
Consider `O=C(Nc1cccc2ccc(-c3cccc(OC(F)(F)F)c3)nc12)c1cccc(F)c1` [Compound 21], for which the “EC1.5 (concentration of test compound that results in 150% activation of SIRT1)” value is recorded as “C (EC1.5>25 uM)”.

With `O=C(Nc1ccncc1)c1cccc2ccc(-c3cccc(OC(F)(F)F)c3)nc12` [Compound 26], the “% Fold Act. (percent maximum fold activation)” value is listed as “A (Fold activation >200%)” and the “EC1.5 (concentration of test compound that results in 150% activation of SIRT1)” value is listed as “B (EC1.5 1-25 uM)”.

Take `O=S(=O)(Nc1nccs1)Nc1cccc2ccc(-c3cccc(OC(F)(F)F)c3)nc12` [Compound 113]: the “EC1.5 (concentration of test compound that results in 150% activation of SIRT1)” value is on record as “C (EC1.5>25 uM)”.

For the molecule `O=C(Nc1ccc(Cl)cn1)c1cccc2ccc(-c3cccnc3)nc12` [Compound 266], the “EC1.5 (concentration of test compound that results in 150% activation of SIRT1)” value was “C (EC1.5>25 uM)”.

As to `O=C(Nc1cccc2ccc(-c3cccc(N4CCCC4)c3)nc12)c1cscn1` [Compound 201], the “EC1.5 (concentration of test compound that results in 150% activation of SIRT1)” value was “C (EC1.5>25 uM)”.

Regarding `O=C(Nc1nc2ccccc2s1)c1cccc2ccc(-c3cccc(N4CCOCC4)c3)nc12` [Compound 250], the “% Fold Act. (percent maximum fold activation)” value is on record as “A (Fold activation >200%)” and the “EC1.5 (concentration of test compound that results in 150% activation of SIRT1)” value is on record as “A (EC1.5<1.0 uM)”.

On to `O=C(Nc1ccncn1)c1cccc2ccc(-c3ccccc3C(F)(F)F)nc12` [Compound 87], for which the “% Fold Act. (percent maximum fold activation)” value is “A (Fold activation >200%)” and the “EC1.5 (concentration of test compound that results in 150% activation of SIRT1)” value is “A (EC1.5<1.0 uM)”.

`O=C(Nc1cccc(CN2CCOCC2)n1)c1cccc2ccc(-c3cccnc3)nc12` [Compound 231]: the “% Fold Act. (percent maximum fold activation)” value is “A (Fold activation >200%)” and the “EC1.5 (concentration of test compound that results in 150% activation of SIRT1)” value is “A (EC1.5<1.0 uM)”.

Consider `O=C(Nc1ncnc2ccc(-c3cccc(C(F)(F)F)c3)nc12)c1cccnc1` [Compound 311], for which the “% Fold Act. (percent maximum fold activation)” value is “A (Fold activation >200%)” and the “EC1.5 (concentration of test compound that results in 150% activation of SIRT1)” value is reported as “B (EC1.5 1-25 uM)”.

With `O=C(Nc1cccc2ccc(-c3ccc(N4CCOCC4)nc3)nc12)c1cscn1` [Compound 246], the “% Fold Act. (percent maximum fold activation)” value was “A (Fold activation >200%)” and the “EC1.5 (concentration of test compound that results in 150% activation of SIRT1)” value is recorded as “B (EC1.5 1-25 uM)”.

Regarding `O=C(Nc1cnccn1)c1cccc2ccc(-c3cccc(N4CCOCC4)c3)nc12` [Compound 279], the “% Fold Act. (percent maximum fold activation)” value is “A (Fold activation >200%)” and the “EC1.5 (concentration of test compound that results in 150% activation of SIRT1)” value is on record as “A (EC1.5<1.0 uM)”.

Take `O=C(Nc1ccncc1)c1cccc2ccc(-c3cccnc3)nc12` [Compound 237]: the “EC1.5 (concentration of test compound that results in 150% activation of SIRT1)” value is listed as “C (EC1.5>25 uM)”.

`O=C(Nc1nccs1)c1cccc2ncc(-c3cccc(OC(F)(F)F)c3)nc12` [Compound 125]: the “EC1.5 (concentration of test compound that results in 150% activation of SIRT1)” value was “C (EC1.5>25 uM)”.

Regarding `O=C(Nc1cccnc1)c1cccc2cc(C(F)(F)F)c(-c3ccccc3)nc12` [Compound 193], the “EC1.5 (concentration of test compound that results in 150% activation of SIRT1)” value is on record as “C (EC1.5>25 uM)”.

In the case of `Cc1csc(NC(=O)c2cccc3ccc(-c4cccc(C(F)(F)F)c4)nc23)n1` [Compound 27], the “% Fold Act. (percent maximum fold activation)” value is “A (Fold activation >200%)” and the “EC1.5 (concentration of test compound that results in 150% activation of SIRT1)” value is listed as “A (EC1.5<1.0 uM)”.

Take `O=C(Nc1cccc2ccc(-c3ccc4c(c3)OCO4)nc12)c1cscn1` [Compound 107]: the “% Fold Act. (percent maximum fold activation)” value is given as “B (Fold Activation <200%)” and the “EC1.5 (concentration of test compound that results in 150% activation of SIRT1)” value is reported as “A (EC1.5<1.0 uM)”.

As to `O=C(Nc1ccncc1)c1cccc2ccc(-c3cccc(C(F)(F)F)c3)nc12` [Compound 32], the “% Fold Act. (percent maximum fold activation)” value is recorded as “A (Fold activation >200%)” and the “EC1.5 (concentration of test compound that results in 150% activation of SIRT1)” value was “A (EC1.5<1.0 uM)”.

`O=C(Nc1ccnc(Cl)c1)c1cccc2ccc(-c3cccc(C(F)(F)F)c3)nc12` [Compound 60]: the “% Fold Act. (percent maximum fold activation)” value is listed as “A (Fold activation >200%)” and the “EC1.5 (concentration of test compound that results in 150% activation of SIRT1)” value is “A (EC1.5<1.0 uM)”.

Turning to `O=C(Nc1ccncn1)c1cccc2cnc(-c3cccnc3)nc12` [Compound 296], the “EC1.5 (concentration of test compound that results in 150% activation of SIRT1)” value was “C (EC1.5>25 uM)”.

Consider `Cn1ccc(C(=O)Nc2cccc3ccc(-c4cccnc4)nc23)n1` [Compound 293], for which the “% Fold Act. (percent maximum fold activation)” value is listed as “A (Fold activation >200%)” and the “EC1.5 (concentration of test compound that results in 150% activation of SIRT1)” value is reported as “A (EC1.5<1.0 uM)”.

For `O=C(Nc1nncs1)c1cccc2ccc(-c3cccnc3)nc12` [Compound 234], the “EC1.5 (concentration of test compound that results in 150% activation of SIRT1)” value was “C (EC1.5>25 uM)”.

In the case of `O=C(Nc1ncc(CN2CCOCC2)s1)c1cccc2ccc(-c3cccnc3)nc12` [Compound 191], the “% Fold Act. (percent maximum fold activation)” value was “A (Fold activation >200%)” and the “EC1.5 (concentration of test compound that results in 150% activation of SIRT1)” value was “B (EC1.5 1-25 uM)”.

As for `Cc1nc(NC(=O)c2cccc3ccc(-c4cccnc4)nc23)sc1C` [Compound 226], the “% Fold Act. (percent maximum fold activation)” value is given as “A (Fold activation >200%)” and the “EC1.5 (concentration of test compound that results in 150% activation of SIRT1)” value was “B (EC1.5 1-25 uM)”.

For the molecule `O=C(Nc1ccncn1)c1cccc2ncc(-c3cccc(OC(F)(F)F)c3)nc12` [Compound 128], the “EC1.5 (concentration of test compound that results in 150% activation of SIRT1)” value was “C (EC1.5>25 uM)”.

As for `Cc1cc(C)nc(NC(=O)c2cccc3ccc(-c4cccc(N5CCOCC5)c4)nc23)c1` [Compound 267], the “% Fold Act. (percent maximum fold activation)” value was “A (Fold activation >200%)” and the “EC1.5 (concentration of test compound that results in 150% activation of SIRT1)” value is listed as “A (EC1.5<1.0 uM)”.

In the case of `Cc1cnc(NC(=O)c2cccc3ccc(-c4cccnc4)nc23)s1` [Compound 225], the “EC1.5 (concentration of test compound that results in 150% activation of SIRT1)” value is listed as “C (EC1.5>25 uM)”.

`O=C(Nc1cccnc1)c1cccc2cnc(-c3cccc(C(F)(F)F)c3)nc12` [Compound 282]: the “EC1.5 (concentration of test compound that results in 150% activation of SIRT1)” value was “C (EC1.5>25 uM)”.

For `O=C(Nc1cccc2ccc(-c3cccc(C(F)(F)F)c3)nc12)c1cncs1` [Compound 220], the “% Fold Act. (percent maximum fold activation)” value is on record as “A (Fold activation >200%)” and the “EC1.5 (concentration of test compound that results in 150% activation of SIRT1)” value is reported as “A (EC1.5<1.0 uM)”.

Turning to `Cc1nnc(NC(=O)c2cccc3ccc(-c4cccnc4)nc23)s1` [Compound 235], the “EC1.5 (concentration of test compound that results in 150% activation of SIRT1)” value is “C (EC1.5>25 uM)”.

`O=C(Nc1ncnc2ccc(-c3cccc(OC(F)(F)F)c3)nc12)c1cccc(C(F)(F)F)c1` [Compound 211]: the “EC1.5 (concentration of test compound that results in 150% activation of SIRT1)” value is on record as “C (EC1.5>25 uM)”.

As for `O=C(Nc1cccc2ccc(-c3cc(F)cc(F)c3)nc12)c1cscn1` [Compound 78], the “EC1.5 (concentration of test compound that results in 150% activation of SIRT1)” value was “C (EC1.5>25 uM)”.
